Assay results as given in patent publication US12653900B2, “Antibody drug conjugates comprising ecteinascidin derivatives” (PHARMA MAR, S.A., priority 2018, dated 2026).
≈ marks a conversion by molar mass, not a printed value. Where “and” joins values, the source holds several entries; their conditions need not be identical. Equal entries are not always repeated. Where two headings read alike, the source gives them in different places.

Columns and labels:
PSN1 = format: cell-based; details: PSN1, 72 hours treatment, SRB
Text: (§1) Evaluation of Cytotoxic Activity Using the SRB and the MTT Colorimetric Assays

A549 = format: cell-based; details: A549, 72 hours treatment, SRB
Text: as §1

HT29 = experiment: cells; format: cell-based; details: HT29, 72 hours treatment, SRB
Text: as §1

MDA-MB-231 = experiment: cells; format: cell-based; details: MDA-MB-231, 72 hours treatment, SRB
Text: as §1

[1] = test system: SK-BR-3, HCC-1954, MDA-MB-231 and MCF-7 cells; experiment: In vitro cytotoxicity across the HER2 breast cancer cell panel and HER2 selectivity; format: cell-based
Method: For SK-BR-3, HCC-1954, MDA-MB-231 and MCF-7 cells, a colorimetric assay using Sulforhodamine B (SRB) was adapted for quantitative measurement of cell growth and cytotoxicity, as described in V. Vichai and K. Kirtikara. Sulforhodamine B colorimetric assay for cytotoxicity screening. Nature Protocols, 2006, 1, 1112-1116. Briefly, cells were seeded in 96-well microtiter plates and allowed to stand for 24 hours in drug-free medium before treatment with vehicle alone or with the tested substances for 72 hours.
(§2) Cell survival was expressed as percentage of control, untreated cell survival.
Standard dose-response (DR) curves for 72 hours incubation with the tested substances were performed.

RPMI 8226 (CD13−) = experiment: In vitro cytotoxicity of ADCs and related reagents, MTT assay; format: cell-based, human; details: RPMI8226 cells, geometric mean of the IC50 values of three experiments; for IC50: read-out: IC50 RPMI8226 (CD13 negative)
Method: (§3) Briefly, cells were seeded in 96-well trays and treated as above and after 72 hours of exposure to the tested substances cellular viability was estimated from conversion of MTT (Sigma, St Louis, MO, USA) to its coloured reaction product, MTT-formazan, which was dissolved in DMSO to measure its absorbance at 540 nm in a microplate spectrophotometer.
as §2

Raji (CD13−) = experiment: as above; format: cell-based, human; details: Raji cells, geometric mean of the IC50 values of three experiments; for IC50: read-out: IC50 Raji (CD13 negative)
Method: as §3, §2

NB 4 (CD13+) = experiment: as above; format: cell-based, human; details: NB-4 cells, geometric mean of the IC50 values of three experiments; for IC50: read-out: IC50 NB-4 (CD13 positive)
Method: as §3, §2

[2] = test system: HT-1080, NB 4, Raji and RPMI 8226 cells; experiment: In vitro cytotoxicity across the CD13 cell panel and CD13 selectivity; format: cell-based, human; details: CD13 positive and negative cell lines
Text: as §2

HT-1080 (CD13+) = experiment: In vitro cytotoxicity of ADCs and related reagents, MTT assay; format: cell-based; details: Homo sapiens, read-out: IC50 HT-1080 (CD13 positive); HT-1080 cells; geometric mean of the IC50 values of three experiments
Text: as §2

HCC-1954 (HER2+) = experiment: In vitro cytotoxicity of ADCs and related reagents, SRB assay; format: cell-based; details: Homo sapiens, HCC1954; HCC-1954, HER2 positive, 72 hours; read-out: IC50
Method: (§4) Sulforhodamine B colorimetric assay for cytotoxicity screening. […] Briefly, cells were seeded in 96-well microtiter plates and allowed to stand for 24 hours in drug-free medium before treatment with vehicle alone or with the tested substances for 72 hours.
as §2

MDA-MB-231 (HER2−) = experiment: as above; format: cell-based; details: Homo sapiens; MDA-MB-231, HER2 negative, 72 hours; read-out: IC50
Method: as §4, §2

SK-BR-3 (HER2+) = experiment: as above; format: cell-based; details: Homo sapiens; SK-BR-3, HER2 positive, 72 hours; read-out: IC50
Method: as §4, §2

[3] = read-out: LC50 (the source's name)
[4] = Homo sapiens, read-out: IC50 values, range over the four cell lines
[5] = Homo sapiens, read-out: geometric mean IC50 value across the whole cell panel

Structure (SMILES): COc1c(C)cc2c(c1O)C1C3C4SCC5(NC(COC(C)=O)Cc6c5[nH]c5ccccc65)C(=O)OCC(c5c6c(c(C)c(OC(C)=O)c54)OCO6)N3C(C#N)C(C2)N1C (stereo not shown) [3a-S]
- GI50 (PSN1): 2.15 nM
- TGI (PSN1): 3.59E-09 Molar
- CC50 (PSN1; [3]): 12 nM
- GI50 (A549): 3.11 nM
- LC50 (concentration giving 50% net cell kill) (A549): > 120 nM
- TGI (A549): 3.23E-09 Molar
- GI50 (HT29): 2.99 nM
- TGI (HT29): 3.23E-09 Molar
- CC50 (HT29; [3]): > 120 nM
- GI50 (MDA-MB-231): 2.87 nM
- TGI (MDA-MB-231): 3.59E-09 Molar
- CC50 (MDA-MB-231; [3]): 4.9 nM

Structure (SMILES): COc1c(C)cc2c(c1O)[C@@H]1[C@@H]3[C@@H]4SC[C@]5(N[C@@H](CN)Cc6c5[nH]c5ccccc65)C(=O)OC[C@@H](c5c6c(c(C)c(OC(C)=O)c54)OCO6)N3[C@@H](C#N)[C@H](C2)N1C [11-R]
- geometric mean IC50 value across the whole cell panel ([1]; SK-BR-3, HCC-1954, MDA-MB-231, MCF-7): 0.79 ng/mL
- IC50 ([1]; SK-BR-3, HCC-1954, MDA-MB-231, MCF-7, read-out: geometric mean IC50 value across the whole cell panel): 0.994 nM
- IC50 RPMI8226 (CD13 negative) (RPMI 8226 (CD13−)): 0.928 ng/mL (≈ 1.17 nM)
- IC50 (RPMI 8226 (CD13−)): 1.17 nM
- IC50 Raji (CD13 negative) (Raji (CD13−)): 0.967 ng/mL (≈ 1.22 nM)
- IC50 (Raji (CD13−)): 1.22 nM
- IC50 NB-4 (CD13 positive) (NB 4 (CD13+)): 0.46 ng/mL (≈ 0.58 nM)
- IC50 (NB 4 (CD13+)): 0.58 nM
- geometric mean IC50 value across the whole cell panel [2]: 0.84 ng/mL
- IC50 ([2]; read-out: geometric mean IC50 value across the whole cell panel): 1.06 nM

Structure (SMILES): COc1c(C)cc2c(c1O)[C@@H]1[C@@H]3[C@@H]4SC[C@]5(N[C@@H](CN)Cc6c5[nH]c5ccccc65)C(=O)OC[C@@H](c5c6c(c(C)c(OC(C)=O)c54)OCO6)N3[C@@H](O)[C@H](C2)N1C [12-R]
- IC50 [1, 4]: 0.0004 µg/mL to 0.0013 µg/mL and 0.562 nM to 1.62 nM
- IC50 [1, 5]: 0.00071 µg/mL and 0.906 nM
- IC50 (HT-1080 (CD13+)): 0.0011 µg/mL and 1.4 nM
- IC50 (RPMI 8226 (CD13−); Homo sapiens, RPMI-8226): 0.00083 µg/mL and 1.06 nM
- IC50 (Raji (CD13−); Homo sapiens): 0.00047 µg/mL and 0.6 nM
- IC50 (NB 4 (CD13+); Homo sapiens): 0.00033 µg/mL and 0.421 nM
- IC50 [2, 4]: 0.0003 µg/mL to 0.0011 µg/mL and 0.421 nM to 1.4 nM
- IC50 [2, 5]: 0.0006 µg/mL and 0.78 nM
- IC50 (HCC-1954 (HER2+)): 0.00127 µg/mL and 1.62 nM
- IC50 (MDA-MB-231 (HER2−)): 0.000493 µg/mL and 0.629 nM
- IC50 (SK-BR-3 (HER2+)): 0.000441 µg/mL and 0.562 nM

Structure (SMILES): COc1ccc2[nH]c3c(c2c1)C[C@H](CN)N[C@]31CS[C@@H]2c3c(OC(C)=O)c(C)c4c(c3[C@H](COC1=O)N1[C@@H]2[C@H]2c3c(cc(C)c(OC)c3O)C[C@@H]([C@@H]1O)N2C)OCO4 [27-R]
- TGI (PSN1): 1.17E-09 Molar
- TGI (A549): 3.93E-09 Molar
- TGI (HT29): 5.53E-10 Molar
- TGI (MDA-MB-231): 5.41E-10 Molar

Structure (SMILES): COc1ccc2[nH]c3c(c2c1)C[C@@H](CN)N[C@]31CS[C@@H]2c3c(OC(C)=O)c(C)c4c(c3[C@H](COC1=O)N1[C@@H]2[C@H]2c3c(cc(C)c(OC)c3O)C[C@@H]([C@@H]1O)N2C)OCO4 [27-S]
- TGI (PSN1): 2.83E-09 Molar
- TGI (A549): 1.12E-08 Molar
- TGI (HT29): 1.35E-09 Molar
